Measured values published in PubChem BioAssay AID264 (DTP/NCI, 2004).
Several values for one entry are separate records, joined by “and”; a condition that tells them apart may be missing. Equal entries are not always repeated. Records with an inconclusive call do not appear.

System: nude mice, LX-1 lung xenograft intrarenal, tumor weight T/C
Experiment: NCI In Vivo Anticancer Drug Screen. Data for tumor model Human Lung LX-1 Xenograft (intrarenal inoculation) in NU/NU Swiss (nude) mice
Settings: endpoint: mean tumor weight change, higher = larger tumour
Summary of the method: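 Tumor-bearing mice receive test compound or vehicle; tumor size is then measured in each group. The treated value is divided by the vehicle value to give T/C.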

[1] = dose: 150.0 mg/kg/injection, schedule: Q04DX003 (sc), vehicle: Klucel (hydroxypropylcellulose) (HPC)
[2] = dose: 300.0 mg/kg/injection, schedule: Q04DX003 (sc), vehicle: Klucel (hydroxypropylcellulose) (HPC)
[3] = dose: 50.0 mg/kg/injection, schedule: Q04DX003 (sc), vehicle: saline with Tween-80
[4] = dose: 600.0 mg/kg/injection, schedule: Q04DX003 (sc), vehicle: Klucel (hydroxypropylcellulose) (HPC)
[5] = dose: 1200.0 mg/kg/injection, schedule: Q04DX003 (sc), vehicle: Klucel (hydroxypropylcellulose) (HPC)
[6] = dose: 1.0 mg/kg/injection, schedule: Q01DX010 (sc), vehicle: saline

Compound: NCCCC(N)(C(=O)O)C(F)F (stereo unspecified)
- T/C (dose: 300.0 mg/kg/injection, schedule: Q04DX003 (sc), vehicle: distilled water + alcohol): 101 % of control
- T/C (dose: 600.0 mg/kg/injection, schedule: Q04DX003 (sc), vehicle: distilled water + alcohol): 87 % of control
- T/C (dose: 1200.0 mg/kg/injection, schedule: Q04DX003 (sc), vehicle: distilled water + alcohol): 82 % of control
- T/C (dose: 2400.0 mg/kg/injection, schedule: Q04DX003 (sc), vehicle: distilled water + alcohol): 92 % of control

Compound: N=C(N)CCCCCCCCC(=N)N
- T/C (dose: 4.69 mg/kg/injection, schedule: Q04DX003 (sc), vehicle: saline): 91 % of control
- T/C (dose: 9.38 mg/kg/injection, schedule: Q04DX003 (sc), vehicle: saline): 92 % of control
- T/C (dose: 18.75 mg/kg/injection, schedule: Q04DX003 (sc), vehicle: saline): 94 % of control

Compound: N/C(=N\OC(=O)Nc1ccc(CSc2ccc(Cl)cc2)o1)c1ccccn1
- T/C (dose: 75.0 mg/kg/injection, schedule: Q04DX003 (sc), vehicle: Klucel (hydroxypropylcellulose) (HPC)): 69 % of control
- T/C [1]: 66 % of control
- T/C [2]: 180 % of control

Compound: O=C(Nc1ccccc1C(=O)O)c1cc([N+](=O)[O-])cc([N+](=O)[O-])c1
- T/C [3]: 86 % of control
- T/C (dose: 100.0 mg/kg/injection, schedule: Q04DX003 (sc), vehicle: saline with Tween-80): 86 % of control
- T/C (dose: 200.0 mg/kg/injection, schedule: Q04DX003 (sc), vehicle: saline with Tween-80): 100 % of control
- T/C (dose: 400.0 mg/kg/injection, schedule: Q04DX003 (sc), vehicle: saline with Tween-80): 64 % of control

Compound: O=C(O)CSc1c(Cl)c(=O)oc2ccc(Cl)cc12
- T/C [1]: 52 % of control
- T/C [2]: 70 % of control
- T/C [4]: 82 % of control
- T/C [5]: 165 % of control

Compound: CN=C(N)N/N=C(\c1ccccc1)c1ccc(Br)cc1
- T/C (dose: 12.5 mg/kg/injection, schedule: Q04DX003 (sc), vehicle: saline with Tween-80): 88 % of control
- T/C (dose: 25.0 mg/kg/injection, schedule: Q04DX003 (sc), vehicle: saline with Tween-80): 122 % of control
- T/C [3]: 103 % of control

Compound: N#CCCN(C(=S)Nc1cccc(C(F)(F)F)c1)C1CCCCC1
- T/C [2]: 60 % of control
- T/C [4]: 55 % of control
- T/C [5]: 77 % of control
- T/C (dose: 2400.0 mg/kg/injection, schedule: Q04DX003 (sc), vehicle: Klucel (hydroxypropylcellulose) (HPC)): 80 % of control

Compound: CN(N=O)C(N)=O
- T/C (dose: 12.5 mg/kg/injection, schedule: Q01DX010 (sc), vehicle: saline with Tween-80): -64 % of control
- T/C (dose: 12.5 mg/kg/injection, schedule: Q04DX003 (sc), vehicle: saline): 19 % of control
- T/C (dose: 25.0 mg/kg/injection, schedule: Q01DX010 (sc), vehicle: saline with Tween-80): -69 % of control
- T/C (dose: 25.0 mg/kg/injection, schedule: Q04DX003 (sc), vehicle: saline): 7 % of control
- T/C (dose: 50.0 mg/kg/injection, schedule: Q04DX003 (sc), vehicle: saline): 12 % of control
- T/C (dose: 100.0 mg/kg/injection, schedule: Q04DX003 (sc), vehicle: saline): 1 % of control

Compound: O=NN(CCCl)C(=O)NC1CCC(=O)NC1=O (stereo unspecified)
- T/C (dose: 1.56 mg/kg/injection, schedule: Q01DX010 (ip), vehicle: saline with Tween-80): 29 % of control
- T/C (dose: 3.13 mg/kg/injection, schedule: Q01DX010 (ip), vehicle: saline with Tween-80): 3 % of control
- T/C (dose: 3.13 mg/kg/injection, schedule: Q01DX010 (sc), vehicle: saline with Tween-80): 10 % of control
- T/C (dose: 5.2 mg/kg/injection, schedule: Q04DX003 (ip), vehicle: saline with Tween-80): 5 % of control
- T/C (dose: 6.25 mg/kg/injection, schedule: Q01DX010 (ip), vehicle: saline with Tween-80): -74 % of control
- T/C (dose: 10.4 mg/kg/injection, schedule: Q04DX003 (ip), vehicle: saline with Tween-80): -94 % of control

Compound: NC(=O)CC(N)C(=O)O (stereo unspecified)
- T/C (dose: 800.0 mg/kg/injection, schedule: Q04DX003 (sc), vehicle: saline): 87 % of control
- T/C (dose: 1600.0 mg/kg/injection, schedule: Q04DX003 (sc), vehicle: saline): 102 % of control
- T/C (dose: 3200.0 mg/kg/injection, schedule: Q04DX003 (sc), vehicle: saline): 77 % of control

Compound: OC(C1CO1)C(O)C1CO1 (stereo unspecified)
- T/C [6]: 73 % of control
- T/C (dose: 2.0 mg/kg/injection, schedule: Q01DX010 (sc), vehicle: saline): 66 % of control

Compound: C/C=C1\C[C@@H]2C(OC)Nc3cc(O)c(OC)cc3C(=O)N2C1 (stereo partly specified)
- T/C (dose: 0.5 mg/kg/injection, schedule: Q04DX003 (sc), vehicle: saline): 93 % of control
- T/C (dose: 1.0 mg/kg/injection, schedule: Q04DX003 (sc), vehicle: saline): 111 % of control
- T/C (dose: 2.0 mg/kg/injection, schedule: Q04DX003 (sc), vehicle: saline): 107 % of control
- T/C (dose: 4.0 mg/kg/injection, schedule: Q04DX003 (sc), vehicle: saline): 96 % of control

Compound: CN(C)C(=O)c1cccc(COc2ccc(N3C(N)=NC(N)=NC3(C)C)cc2Cl)c1
- T/C (dose: 6.25 mg/kg/injection, schedule: Q01DX010 (sc), vehicle: saline): 85 % of control
- T/C (dose: 12.5 mg/kg/injection, schedule: Q01DX010 (sc), vehicle: saline): 57 % of control
- T/C (dose: 25.0 mg/kg/injection, schedule: Q01DX010 (sc), vehicle: saline): 25 % of control
- T/C (dose: 25.0 mg/kg/injection, schedule: Q01DX010 (sc), vehicle: suspension in saline): 91 % of control

Compound: N=C(N)SCc1cccc2c(=O)cc(-c3ccccc3)oc12
- T/C (dose: 300.0 mg/kg/injection, schedule: Q04DX003 (sc), vehicle: suspension in saline): 51 % of control
- T/C (dose: 600.0 mg/kg/injection, schedule: Q04DX003 (sc), vehicle: suspension in saline): 39 % of control
- T/C (dose: 1200.0 mg/kg/injection, schedule: Q04DX003 (sc), vehicle: suspension in saline): 63 % of control

Compound: Nc1ncnc2c1ncn2C1C=C(CO)C(O)C1O (stereo unspecified)
- T/C (dose: 3.75 mg/kg/injection, schedule: Q04DX003 (sc), vehicle: saline): 49 % of control
- T/C (dose: 7.5 mg/kg/injection, schedule: Q04DX003 (sc), vehicle: saline): 70 % of control
- T/C (dose: 15.0 mg/kg/injection, schedule: Q04DX003 (sc), vehicle: saline): 58 % of control

Compound: COC(=O)C[C@](O)(CCCC(C)(C)O)C(=O)O[C@@H]1C(OC)=C[C@]23CCCN2CCc2cc4c(cc2[C@H]13)OCO4
- T/C (dose: 0.5 mg/kg/injection, schedule: Q01DX010 (sc), vehicle: saline): 115 % of control
- T/C [6]: 61 % of control

Compound: BrC1CC(Br)c2c1c1c(c3c2C(Br)CC3Br)C(Br)CC1Br (stereo unspecified)
- T/C (dose: 300.0 mg/kg/injection, schedule: Q04DX003 (sc), vehicle: water): 46 % of control
- T/C (dose: 600.0 mg/kg/injection, schedule: Q04DX003 (sc), vehicle: water): 43 % of control
- T/C (dose: 1200.0 mg/kg/injection, schedule: Q04DX003 (sc), vehicle: water): 29 % of control
- T/C (dose: 2400.0 mg/kg/injection, schedule: Q04DX003 (sc), vehicle: water): 29 % of control

Compound: CCc1ncnc2cc(OCC3CO3)c(OC)cc12 (stereo unspecified)
- T/C (dose: 25.0 mg/kg/injection, schedule: Q04DX003 (sc), vehicle: suspension in saline): 53 % of control
- T/C (dose: 50.0 mg/kg/injection, schedule: Q04DX003 (sc), vehicle: suspension in saline): 64 % of control
- T/C (dose: 200.0 mg/kg/injection, schedule: Q04DX003 (sc), vehicle: suspension in saline): 24 % of control

Compound: O=NN(CCCl)C(=O)NCCCl
- T/C (dose: 4.0 mg/kg/injection, schedule: Q01DX010 (sc), vehicle: saline): 44 % of control and 51 % of control and 65 % of control
- T/C (dose: 7.5 mg/kg/injection, schedule: Q04DX003 (sc), vehicle: suspension in saline): 90 % of control
- T/C (dose: 8.0 mg/kg/injection, schedule: Q01DX010 (sc), vehicle: saline): 16 % of control and 17 % of control
- T/C (dose: 13.33 mg/kg/injection, schedule: Q04DX003 (sc), vehicle: saline): 9 % of control
- T/C (dose: 15.0 mg/kg/injection, schedule: Q04DX003 (sc), vehicle: suspension in saline): 31 % of control
- T/C (dose: 16.0 mg/kg/injection, schedule: Q01DX010 (sc), vehicle: saline): -75 % of control and -72 % of control and -67 % of control
- T/C (dose: 26.65 mg/kg/injection, schedule: Q04DX003 (sc), vehicle: saline): -32 % of control
- T/C (dose: 30.0 mg/kg/injection, schedule: Q04DX003 (sc), vehicle: suspension in saline): 1 % of control
- T/C (dose: 32.0 mg/kg/injection, schedule: Q01DX010 (sc), vehicle: saline): -9 % of control and -3 % of control
- T/C (dose: 53.3 mg/kg/injection, schedule: Q04DX003 (sc), vehicle: saline): -84 % of control
- T/C (dose: 60.0 mg/kg/injection, schedule: Q04DX003 (sc), vehicle: suspension in saline): 16 % of control
